Reference: PubChem BioAssay (NCI)
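Method: 48-hour compound exposure of cells in 96-well plates, five concentrations, linear interpolation of endpoints. GI50 marks 50% less growth. At the TGI there is no net growth.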

What was measured:
Experiment in all cases: growth of human tumour cells (NCI), 48 h
786-0 renal = tested on: 786-0 renal
A498 renal = tested on: A498 renal
A549 NSCLC = tested on: A549 NSCLC
ACHN renal = tested on: ACHN renal
BT-549 breast = tested on: BT-549 breast
CAKI-1 renal = tested on: CAKI-1 renal
CCRF-CEM leukemia = tested on: CCRF-CEM leukemia
COLO 205 colon = tested on: COLO 205 colon
DU-145 prostate = tested on: DU-145 prostate
EKVX NSCLC = tested on: EKVX NSCLC
HCC-2998 colon = tested on: HCC-2998 colon
HCT-116 colon = tested on: HCT-116 colon
HCT-15 colon = tested on: HCT-15 colon
HL-60(TB) leukemia = tested on: HL-60(TB) leukemia
HOP-62 NSCLC = tested on: HOP-62 NSCLC
HOP-92 NSCLC = tested on: HOP-92 NSCLC
HS 578T breast = tested on: HS 578T breast
HT29 colon = tested on: HT29 colon
IGROV1 ovarian = tested on: IGROV1 ovarian
K-562 leukemia = tested on: K-562 leukemia
KM12 colon = tested on: KM12 colon
LOX IMVI melanoma = tested on: LOX IMVI melanoma
M14 melanoma = tested on: M14 melanoma
MALME-3M melanoma = tested on: MALME-3M melanoma
MCF7 breast = tested on: MCF7 breast
MDA-MB-231 breast = tested on: MDA-MB-231 breast
MDA-MB-435 = tested on: MDA-MB-435
MOLT-4 leukemia = tested on: MOLT-4 leukemia
NCI-H226 lung = tested on: NCI-H226 lung
NCI-H23 lung = tested on: NCI-H23 lung

Cc1ccc(-c2c(C#N)[n+](=O)c3cc(Cl)c(Cl)cc3n2[O-])cc1
GI50 (786-0 renal): 13.4 µM | TGI (786-0 renal): 30.1 µM | GI50 (A498 renal): 16.3 µM | TGI (A498 renal): 30.4 µM | GI50 (A549 NSCLC): 8.32 µM | TGI (A549 NSCLC): 23.3 µM | GI50 (ACHN renal): 5.27 µM | GI50 (BT-549 breast): 16.1 µM | TGI (BT-549 breast): 35.5 µM | GI50 (CAKI-1 renal): 16.9 µM | TGI (CAKI-1 renal): 32.2 µM | GI50 (CCRF-CEM leukemia): 2.95 µM | TGI (CCRF-CEM leukemia): 15.6 µM | GI50 (COLO 205 colon): 8.97 µM | TGI (COLO 205 colon): 24.2 µM | GI50 (DU-145 prostate): 17 µM | TGI (DU-145 prostate): 33.2 µM | GI50 (EKVX NSCLC): 21.5 µM | TGI (EKVX NSCLC): 45.4 µM | GI50 (HCC-2998 colon): 4.76 µM | TGI (HCC-2998 colon): 11.6 µM | GI50 (HCT-116 colon): 2.16 µM | GI50 (HCT-15 colon): 29.9 µM | TGI (HCT-15 colon): > 100 µM | GI50 (HL-60(TB) leukemia): 2.5 µM | TGI (HL-60(TB) leukemia): > 100 µM | GI50 (HOP-62 NSCLC): 10.3 µM | TGI (HOP-62 NSCLC): 26.7 µM | GI50 (HOP-92 NSCLC): 6 µM | TGI (HOP-92 NSCLC): 13.7 µM | GI50 (HS 578T breast): 10.3 µM | TGI (HS 578T breast): 48.9 µM | GI50 (HT29 colon): 2.94 µM | TGI (HT29 colon): 11 µM | GI50 (IGROV1 ovarian): 3.41 µM | TGI (IGROV1 ovarian): > 36.9 µM | GI50 (K-562 leukemia): 2.56 µM | GI50 (KM12 colon): 6.05 µM | TGI (KM12 colon): 26.6 µM | GI50 (LOX IMVI melanoma): 27.1 µM | TGI (LOX IMVI melanoma): > 100 µM | GI50 (M14 melanoma): 4.95 µM | TGI (M14 melanoma): 19.2 µM | GI50 (MALME-3M melanoma): 7 µM | TGI (MALME-3M melanoma): 25.2 µM | GI50 (MCF7 breast): 13.6 µM | TGI (MCF7 breast): 34.9 µM | GI50 (MDA-MB-231 breast): 3.49 µM | GI50 (MDA-MB-435): 17.2 µM | TGI (MDA-MB-435): 35.2 µM | GI50 (MOLT-4 leukemia): 1.55 µM | TGI (MOLT-4 leukemia): 3.41 µM | GI50 (NCI-H226 lung): 40.4 µM | TGI (NCI-H226 lung): > 100 µM | GI50 (NCI-H23 lung): 5.46 µM | TGI (NCI-H23 lung): 13.1 µM
